# From US20110028554A1, “PHARMACEUTICAL COMPOSITIONS COMPRISING DIIODOTHYRONINE AND THEIR THERAPEUTIC USE” (UNIVERSITE JOSEPH FOURIER, priority 2007, published 2011)
# Assays:
# [1] = Growth rate (body weight) of Wistar rats with subcutaneous continuous-release pellet; assay type: in vivo; settings: high dosage 25 μg/100 g BW
# Procedure: (§1) Adult male rat bred in the animal room facilities of Laboratory of Fundamental and Applied. Bioenergetics (Wistar strain) or purchased from Charles-River Laboratories, Domaine des oncins, L'ARBRESLE France [(genetically obese normoglycemic (Zucker or Fa/Fa) or diabetic (ZDF)] were caged individually in stainless steel hanging cages and maintained in a 22° C., 50±10% relative humidity and 12 h:12 h light:dark environment. All animals were fed ad libitum with a standard rat chow (Safe A04, Villemoisson, France) and tap water. Body mass and food intake were recorded twice/thrice a week and fresh food was provided, at the same time to ensure minimal disturbance to the animals' food, behavior.
# (§2) Eight-week old rats (300 g±10 g) were anesthetized by simultaneous intraperitoneal injection of diazepam 4 mg/kg and ketamine 100 mg/kg. In order to maintain body temperature during the surgery (10 min), animals were placed on a warm blanket. After interscapular shaving, a small incision of 0.5 cm of the skin allows the subcutaneous implantation of a small pellet (containing rT3 or 3′,3-T2) with a 10-gauge precision trochar. The pellets, manufactured by Innovative Research of America (Sarasota, Fla., USA) are constituted of a biodegradable matrix that effectively and continuously release the active product in the animal.
# (§3) 3-5 diiodothyronine (3-5 T2) or 3-3′diiodothyronine (3-3′ T2) were used at different doses (5, 0.5, or 0.1 mg/pellet) were implanted in order to provide a continuous and constant drug delivery over 60 days (which represents 25 μg, 2.5 μg or 0.5 μg/day/100 g BW).
# liver mitochondria = experiment: Liver mitochondrial oxygen consumption (JO2) of treated Wistar rats; assay type: in vivo; settings: high dosage 25 μg/100 g BW
# Procedure: All measurements were performed using mitochondria (1.0 mg mitochondrial protein/ml) incubated with various substrates: • GM: glutamate/malate (5 mM/2.5 mM) • SR: succinate/rotenone (5 mM/5 μM), • GMS: glutamate/malate/succinate (5 mM/2.5 mM/5 mM), • Palm: palmitoyl carnitine (55 μM), • Octa: octanoyl carnitine (100 μM), • TMPD/AsC: TMPD/ascorbate (0.5 mM/0.5 mM), and • TMPD/AsC/DNP: TMPD/ascorbate/DNP (0.5 mM/0.5 mM/75 μM).
# JO2 was recorded in the presence of the substrate and following the addition of 1 mM ADP (adenosine diphosphate) (state 3).
# The oligomycin was added to the mitochondrial suspension to determine the non-phosphorylating respiratory-rate (state 4).
# (§4) The major part of the liver and the red part of each quadriceps were rinsed, and chopped into isolation medium (250 mM sucrose, 20 mM Tris-HCl and 1 mM EGTA-Tris, pH 7.4). Nuclei and cell debris were removed, by centrifugation at 800 g for 10 min. Mitochondria were then isolated from the supernatant by spinning twice at 8,000 g for 10 minutes. The mitochondrial pellet was resuspended in 0.5 ml of isolation buffer and kept on ice. Mitochondrial protein was measured by the bicinchoninic acid method (Pierce, Rockford, Ill.). The final mitochondrial suspensions were maintained on ice and were used for measurements of oxygen consumption rate and reactive oxygen species (ROS) production.
# (§5) The rate of mitochondrial oxygen consumption (JO2) was measured at 30° C. in an incubation chamber with a Clark-type O2 electrode filled with 2 ml of incubation medium (125 mM KCl, 10 mM Pi-Tris, 20 mM Tris-HCl, 0.1 mM EGTA, pH 7.2). All measurements were performed using mitochondria (1.0 or 0.2 mg mitochondrial protein/ml for liver and skeletal muscle) incubated either with various substrates: glutamate/malate (5 mM/2.5 mM) and succinate (5 mM), alone or in combination, palmitoyl carnitine (55 μM) and octanoyl carnitine (100 μM). For each substrate, JO2 was recorded in the presence of the substrate alone (State 2) and following the addition of 1 mM ADP (state 3). Oligomycin (1.25 μg/mg protein) was added to the mitochondrial suspension to determine the non-phosphorylating respiratory rate (state 4). The incubation medium was constantly stirred with a built-in electromagnetic stirrer and bar flea. The efficiency of the mitochondrial oxidative phosphorylation was assessed by the state 3/state 4 ratio which measures the degree of control imposed on oxidation by phosphorylation (respiratory control ratio, RCR).
# muscle mitochondria = experiment: Muscle mitochondrial oxygen consumption (JO2) of treated Wistar rats; assay type: in vivo; settings: high dosage 25 μg/100 g BW
# Procedure: All measurements were performed using mitochondria (0.2 mg mitochondrial protein/ml) incubated with various substrates: • GM: glutamate/malate (5 mM/2.5 mM) • SR: succinate/rotenone (5 mM/5 μM), • GMS: glutamate/malate/succinate (5 mM/2.5 mM/5 mM), • Palm: palmitoyl carnitine (55 μM), • Octa: octanoyl carnitine (100 μM), • TMPD/AsC: TMPD/ascorbate (0.5 mM/0.5 mM), and • TMPD/AsC/DNP: TMPD/ascorbate/DNP (0.5 mM/0.5 mM/75 μM).
# JO2 was recorded in the presence of the substrate and following the addition of 1 mM ADP (state 3).
# The oligomycin was added to the mitochondrial suspension to determine the non-phosphorylating respiratory rate (state 4).
# as §4, §5
# [2] = Food intake of Wistar rats; assay type: in vivo; settings: high dosage 25 μg/100 g BW
# Procedure: as §1, §2, §3
# [3] = Plasmatic concentrations of glucose, triglycerides, cholesterol, FFA and HDL on the day of sacrifice; assay type: in vivo, Wistar, Zucker and ZDF rats; settings: non-diabetic Wistar rats, 3,3′-T2 treatment (dose not printed in FIG. 15A legend)
# Text: These measurements were done on venous blood of the rats the day of the sacrifice.
# (§6) At the end of the experimental period, animals were sacrificed by decapitation, in order to avoid the well-known effects of general anesthetics on mitochondrial metabolism. Blood, samples were immediately collected and plasma was frozen for subsequent determination of serum metabolites and hormones. Liver, muscles and fat depots were quickly excised and weighed. Liver median lobe was rapidly freeze-clamped. Muscles (plantaris, soleus and gastrocnemius) were frozen in isopentane precooled in liquid nitrogen. Mesenteric fat consisted, of adipose tissue surrounding the gastro-intestinal tract from the gastro-oesophageal sphincter to the end of the rectum with special care taken in distinguishing and removing the pancreas. Retroperitoneal fat pad was taken as the distinct depot behind each kidney along the lumbar muscles. Epididymal fat consisted, of adipose tissue on top of the epididymis. For subcutaneous depot measurement, a rectangular piece of skin was taken on the right side of each animal from the median line of the abdomen between the spine and the right hip to the first rib. Interscapular brown adipose tissue was removed and dissected free from adjacent muscles and white adipose tissue. The heart ventricles, the right kidney and the spleen were also excised, weighed and frozen.
# Glucose and 3-hydroxybutyrate (3-HB) were measured, enzymatically and non esterified fatty acid (NEFA) by colorimetric assay (Wako Chemicals).
# Triglycerides and cholesterol were measured by classical routine automate apparatus.
# [4] = Body composition (adipose tissues, skeletal muscles, brown adipose tissue) of Wistar rats; assay type: in vivo; settings: high dosage 25 μg/100 g BW
# Text: as §6
# [5] = system: nuclear receptors of the thyroid hormones, TRα-1 and TRβ-1; settings: literature; cited from earlier work
SMILES,Growth rate (body weight gain) vs placebo [1],"Liver mitochondrial respiratory rate, non-phosphorylating (state 4, oligomycin), vs placebo (liver mitochondria)","Liver mitochondrial respiratory rate, phosphorylating condition (state 3), vs placebo (liver mitochondria; all substrates)","Muscle mitochondrial respiration, non-phosphorylating (state 4), vs placebo (muscle mitochondria)","Muscle mitochondrial respiration, phosphorylating (state 3), vs placebo (muscle mitochondria)",Food intake vs placebo [2],Plasmatic glucose at the end of the treatment [3],Brown adipose tissue weight vs placebo [4],"Fat masses, all localizations (retroperitoneal, epididymal, mesenteric, subcutaneous) vs placebo [4]",Muscle mass / lean body mass vs placebo [4],Binding to the nuclear receptors [5]
"N[C@@H](Cc1ccc(Oc2ccc(O)c(I)c2)c(I)c1)C(=O)O [3,3′-T2, 3′,3-diiodothyronine]",did not show similar weight gain,"substantially higher in the low 3,5-T2 group only",very significant increased respiratory rate,failed to substantially affect,failed to substantially affect,a biphasic effect was observed,minor changes,significantly increased,significantly decreased,not affected,–
N[C@@H](Cc1cc(I)c(Oc2ccc(O)c(I)c2)c(I)c1)C(=O)O [T3],–,–,–,–,–,–,–,–,–,–,binds very efficiently
"N[C@@H](Cc1cc(I)c(Oc2cc(I)c(O)c(I)c2)c(I)c1)C(=O)O [T4, Thyroxine]",–,–,–,–,–,–,–,–,–,–,binds less efficiently
